Ends that are not written are not given here.
What follows are sequences tested on MRSA (assay: FITC assay to monitor cellular uptake of peptides (fluorescence microscopy)). Conditions: 2 hours post-treatment with 1 μM of FITC-peptide agents.
Assay type: cell-based, Staphylococcus aureus
Protocol: An FITC assay may be utilized, to monitor cellular uptake of peptides. Peptides were conjugated to fluorescein isothiocyanate (FITC) to monitor uptake using florescence microscopy. FIG. 2A-2B show assay results for several peptides as tested in MRSA (FIG. 2A) and AcB (FIG. 2B) (fluorescent overlays 2 hours post-treatment with 1 μM of FITC peptide agents, scale bar=100 μm).
An FITC assay was utilized to monitor cellular uptake of peptides. Peptides were conjugated to fluorescein isothiocyanate (FITC) to monitor uptake using, florescence microscopy.
“GIGKWLHSAKKFGKAFVGEIMNS (also: FITC label, site not given here) [Magainin-FITC, Magainin 2 cell penetrating peptide conjugated to fluorescein isothiocyanate (FITC)]” was tested, and the “cellular entry of FITC-peptide” value was “effective for entry into MRSA”.
With “KFFKFFKFFK (also: FITC label, site not given here) [cell penetrating peptide, tested conjugated to FITC]” the “cellular entry of FITC-peptide” value was “effective for cellular entry”.
In the case of “RFFRFFRFFR (also: FITC label, site not given here) [cell penetrating peptide, tested conjugated to FITC]”, the “cellular entry of FITC-peptide” value is reported as “effective for cellular entry”.

From patent US9909123B2, “Antisense molecules for treatment of Staphylococcus aureus infection” (priority 2013, dated 2018)
